Results reported in ChEMBL document CHEMBL5356964, “Design, synthesis and anti-rheumatoid arthritis activity of target TLR4 inhibitors” (Bioorg Med Chem, 2024).
The source made the active and inactive calls. No cut-off for these calls is given here.

How the values were obtained:
[1] = Antiproliferative activity against rat Synovial cell assessed as inhibition of cell growth incubated for 48 hrs by CCK-8 assay; assay type: functional, cell-based
[2] = tested on: RAW264.7; test: Antiproliferative activity against LPS-induced- mouse RAW264.7 cells assessed as inhibition of cell growth incubated for 24 hrs by CCK-8 assay; assay type: functional, cell-based; conditions: RAW264.7, 24 h
[3] = tested on: RAW264.7; test: Antiarthritic activity against LPS-induced mouse RAW264.7 cells assessed as reduction in TNF-alpha level at 1 uM incubated for 24 hrs (Rvb 653.3 +/- 70.1 pg/L); assay type: functional
[4] = tested on: RAW264.7; test: Antiarthritic activity against LPS-induced mouse RAW264.7 cells assessed as downregulation of JAK2 expression at 1 uM preincubated with compound for 24 hrs followed by LPS-induction and measured after 24 hrs by immunofluorescence analysis; assay type: functional, cell-based; conditions: time 48.0 hrs
[5] = tested on: RAW264.7; test: Antiarthritic activity against LPS-induced mouse RAW264.7 cells assessed as downregulation of STAT3 mRNA expression at 1 uM preincubated with compound for 24 hrs followed by LPS-induction and measured after 24 hrs by RT-PCR analysis; assay type: functional, cell-based; conditions: time 48.0 hrs
[6] = tested on: RAW264.7; test: Antiarthritic activity against LPS-induced mouse RAW264.7 cells assessed as downregulation of TNF-alpha expression at 1 uM preincubated with compound for 24 hrs followed by LPS-induction and measured after 24 hrs by Western blot analysis; assay type: functional, cell-based; conditions: time 48.0 hrs
[7] = tested on: RAW264.7; test: Antiarthritic activity against LPS-induced mouse RAW264.7 cells assessed as reduction in IL-1beta level at 1 uM incubated for 24 hrs (Rvb 665.1 +/- 82.1 pg/L); assay type: functional
[8] = tested on: RAW264.7; test: Antiarthritic activity against LPS-induced mouse RAW264.7 cells assessed as downregulation of TLR4 expression at 1 uM preincubated with compound for 24 hrs followed by LPS-induction and measured after 24 hrs by Western blot analysis; assay type: functional, cell-based; conditions: time 48.0 hrs
[9] = tested on: RAW264.7; test: Antiarthritic activity against LPS-induced mouse RAW264.7 cells assessed as downregulation of TNF-alpha expression at 1 uM preincubated with compound for 24 hrs followed by LPS-induction and measured after 24 hrs by immunofluorescence analysis; assay type: functional, cell-based; conditions: time 48.0 hrs
[10] = tested on: RAW264.7; test: Antiarthritic activity against LPS-induced mouse RAW264.7 cells assessed as downregulation of JAK2 mRNA expression at 1 uM preincubated with compound for 24 hrs followed by LPS-induction and measured after 24 hrs by RT-PCR analysis; assay type: functional, cell-based; conditions: time 48.0 hrs
[11] = tested on: RAW264.7; test: Antiarthritic activity against LPS-induced mouse RAW264.7 cells assessed as reduction in IL-1beta level at 1 uM pretreated with compound for 24 hrs followed by LPS induction and measured after 24 hrs; assay type: functional, cell-based; conditions: time 48.0 hrs
[12] = tested on: RAW264.7; test: Antiarthritic activity against LPS-induced mouse RAW264.7 cells assessed as downregulation of TLR4 mRNA expression at 1 uM preincubated with compound for 24 hrs followed by LPS-induction and measured after 24 hrs by RT-PCR analysis; assay type: functional, cell-based; conditions: time 48.0 hrs
[13] = tested on: RAW264.7; test: Antiarthritic activity against LPS-induced mouse RAW264.7 cells assessed as reduction in IL-6 level at 1 uM pretreated with compound for 24 hrs followed by LPS induction and measured after 24 hrs; assay type: functional, cell-based; conditions: time 48.0 hrs
[14] = tested on: RAW264.7; test: Antiproliferative activity against LPS-induced- mouse RAW264.7 cells assessed as decrease in number of cells at 1 uM pretreated with compound for 24 hrs followed by LPS induction and measured after 24 hrs; assay type: functional, cell-based; conditions: time 48.0 hrs
[15] = tested on: RAW264.7; test: Antiarthritic activity against LPS-induced mouse RAW264.7 cells assessed as downregulation of TNF-alpha mRNA expression at 1 uM preincubated with compound for 24 hrs followed by LPS-induction and measured after 24 hrs by RT-PCR analysis; assay type: functional, cell-based; conditions: time 48.0 hrs
[16] = tested on: RAW264.7; test: Antiarthritic activity against LPS-induced mouse RAW264.7 cells assessed as downregulation of STAT3 expression at 1 uM preincubated with compound for 24 hrs followed by LPS-induction and measured after 24 hrs by immunofluorescence analysis; assay type: functional, cell-based; conditions: time 48.0 hrs
[17] = tested on: RAW264.7; test: Antiarthritic activity against LPS-induced mouse RAW264.7 cells assessed as downregulation of NF-kappaB expression at 1 uM preincubated with compound for 24 hrs followed by LPS-induction and measured after 24 hrs by immunofluorescence analysis; assay type: functional, cell-based; conditions: time 48.0 hrs
[18] = tested on: RAW264.7; test: Antiarthritic activity against LPS-induced mouse RAW264.7 cells assessed as reduction in TNF-alpha level at 1 uM pretreated with compound for 24 hrs followed by LPS induction and measured after 24 hrs; assay type: functional, cell-based; conditions: time 48.0 hrs
[19] = tested on: RAW264.7; test: Antiarthritic activity against LPS-induced mouse RAW264.7 cells assessed as downregulation of NF-kappaB mRNA expression at 1 uM preincubated with compound for 24 hrs followed by LPS-induction and measured after 24 hrs by RT-PCR analysis; assay type: functional, cell-based; conditions: time 48.0 hrs
[20] = tested on: RAW264.7; test: Antiarthritic activity against LPS-induced mouse RAW264.7 cells assessed as downregulation of TLR4 expression at 1 uM preincubated with compound for 24 hrs followed by LPS-induction and measured after 24 hrs by immunofluorescence analysis; assay type: functional, cell-based; conditions: time 48.0 hrs
[21] = tested on: RAW264.7; test: Antiarthritic activity against LPS-induced mouse RAW264.7 cells assessed as downregulation of NF-kappaB expression at 1 uM preincubated with compound for 24 hrs followed by LPS-induction and measured after 24 hrs by Western blot analysis; assay type: functional, cell-based; conditions: time 48.0 hrs
[22] = tested on: RAW264.7; test: Antiarthritic activity against LPS-induced mouse RAW264.7 cells assessed as reduction in IL-6 level at 1 uM incubated for 24 hrs (Rvb 231.1 +/- 24.2 pg/L); assay type: functional
[23] = tested on: RAW264.7; test: Antiproliferative activity against LPS-induced- mouse RAW264.7 cells assessed as cell survival at 1 uM pretreated with compound for 24 hrs followed by LPS induction and measured after 24 hrs; assay type: functional, cell-based; conditions: time 48.0 hrs
[24] = target: Toll-like receptor 4 (Homo sapiens, UniProt O00206); test: Inhibition of TLR4 (unknown origin) using TMB as substrate incubated for 90 mins
Sequence of Toll-like receptor 4 (O00206 whole entry): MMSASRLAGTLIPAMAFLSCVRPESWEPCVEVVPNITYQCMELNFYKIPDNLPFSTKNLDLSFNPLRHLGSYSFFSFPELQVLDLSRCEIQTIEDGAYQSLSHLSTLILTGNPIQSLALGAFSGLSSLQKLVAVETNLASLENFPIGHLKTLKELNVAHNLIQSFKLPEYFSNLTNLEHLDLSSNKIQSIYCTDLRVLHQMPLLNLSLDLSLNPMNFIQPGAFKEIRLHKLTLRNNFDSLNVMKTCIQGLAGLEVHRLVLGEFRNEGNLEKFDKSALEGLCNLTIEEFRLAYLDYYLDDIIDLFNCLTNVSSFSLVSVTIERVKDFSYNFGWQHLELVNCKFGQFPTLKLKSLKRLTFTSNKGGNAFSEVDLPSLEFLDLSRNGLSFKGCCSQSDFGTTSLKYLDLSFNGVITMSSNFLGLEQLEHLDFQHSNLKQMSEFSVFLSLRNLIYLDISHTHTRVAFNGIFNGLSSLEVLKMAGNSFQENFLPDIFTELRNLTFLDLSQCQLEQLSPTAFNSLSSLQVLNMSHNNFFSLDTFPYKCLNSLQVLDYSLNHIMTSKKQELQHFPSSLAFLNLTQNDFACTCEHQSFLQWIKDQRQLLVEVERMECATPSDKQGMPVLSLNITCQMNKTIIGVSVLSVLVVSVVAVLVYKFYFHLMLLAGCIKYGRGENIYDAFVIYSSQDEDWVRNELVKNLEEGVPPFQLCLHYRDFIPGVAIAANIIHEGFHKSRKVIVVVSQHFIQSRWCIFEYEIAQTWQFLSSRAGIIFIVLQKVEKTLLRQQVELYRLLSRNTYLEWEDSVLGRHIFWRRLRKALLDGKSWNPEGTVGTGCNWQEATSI

Compound: CCCCCC1CCC(=O)C(C(=O)CC(C)=O)C1 (stereo not drawn)
- IC50 [1]: 5.08 µM
- IC50 [2]: 2.45 µM

Compound: CC(=O)CC(=O)C1CC(C(C)(C)C)CCC1=O (stereo not drawn)
- IC50 [1]: 6.43 µM
- IC50 [2]: 2.93 µM

Compound: CCC(C)(C)C1CCC(=O)C(C(=O)CC(C)=O)C1 (stereo not drawn)
- IC50 [1]: 10.3 µM
- IC50 [2]: 3.9 µM

Compound: CC(=O)CC(=O)C1CCCCC1=O (stereo not drawn)
- IC50 [1]: 4.45 µM
- IC50 [2]: 3.11 µM

Compound: CC(=O)CC(=O)C1CC(c2ccc(O)cc2)CCC1=O (stereo not drawn)
- IC50 [1]: 7.94 µM
- IC50 [2]: 3.21 µM

Compound: CC(=O)CC(=O)C1CC(NC(=O)OC(C)(C)C)CCC1=O (stereo not drawn)
- IC50 [1]: 5.11 µM
- IC50 [2]: 2.67 µM

Compound: COC(=O)C1CCC(=O)C(C(=O)CC(C)=O)C1 (stereo not drawn)
- IC50 [1]: 16.6 µM
- IC50 [2]: 7.4 µM

Compound: CN(Cc1cnc2nc(N)nc(N)c2n1)c1ccc(C(=O)N[C@@H](CCC(=O)O)C(=O)O)cc1 [METHOTREXATE]
- Activity [3]: 235.3 pg/L
- Activity [4]: inactive
- Activity [5]: inactive
- Activity [6]: Active
- Activity [7]: 334.5 pg/L
- Activity [8]: Active
- Activity [9]: Active
- Activity [10]: inactive
- Activity [11]: Active
- Activity [12]: Active
- Activity [13]: Active
- Activity [14]: Active
- Activity [15]: Active
- Activity [16]: inactive
- Activity [17]: Active
- IC50 [1]: 2.33 µM
- Activity [18]: Active
- Activity [19]: Active
- IC50 [2]: 1.23 µM
- Activity [20]: Active
- Activity [21]: Active
- Activity [22]: 115.3 pg/L
- Activity [23]: Active

Compound: CC(=O)CC(=O)C1CC(=O)CCC1=O (stereo not drawn)
- IC50 [1]: 6.51 µM
- IC50 [2]: 3.63 µM

Compound: CCCCC1CCC(=O)C(C(=O)CC(C)=O)C1 (stereo not drawn)
- Activity [3]: 401.6 pg/L
- Activity [7]: 481.6 pg/L
- IC50 [1]: 2.72 µM
- IC50 [24]: 1.86 µM
- IC50 [2]: 1.56 µM
- Activity [22]: 187.4 pg/L

Compound: CC(=O)CC(=O)C1CC(C(=O)O)CCC1=O (stereo not drawn)
- IC50 [1]: 5.31 µM
- IC50 [2]: 2.71 µM

Compound: CC(=O)CC(=O)C1CC(N)CCC1=O (stereo not drawn)
- Activity [3]: 332.9 pg/L
- Activity [7]: 367.3 pg/L
- IC50 [1]: 2.15 µM
- IC50 [24]: 1.03 µM
- IC50 [2]: 1.2 µM
- Activity [22]: 136.9 pg/L
